Entries after “also recorded” stand apart in the source; their conditions may differ.
How the values were obtained:
HPV18 [1] = experiment: Stable maintenance of HPV18 in U2OS #1.13 cells, subconfluent; type: cell-based; settings: U2OS #1.13, subconfluent, 7 days
Procedure: (§1) FIG. 3 Effect of compounds on stable maintenance and vegetative amplification of HPV18. A: U2OS #1.13 cells were grown in subconfluent conditions in the presence of the identified five compounds for 7 days. Genomic DNA was extracted, linearized and HPV replication signal was detected by Southern Blot and B: quantified by phosphoimager. C: U2OS #1.13 were seeded and grown for 5 days without splitting. On the 5th day indicated concentrations of compounds were added to the media and the cells were grown for additional 7 days without splitting. On the 12th day genomic DNA was extracted, linearized and HPV replication signal was detected by Southern Blot and D: quantified by phosphoimager. Error-bars represent standard deviations from at least two independent experiments.
Our U2OScell-based system is suitable for studying all three replication stages of various HPV subtypes. Stable maintenance phase could be monitored by maintaining HPV-positive cells in subconfluent conditions. We used HPV18 positive monoclonal U2OS cell-line #1.13 with viral copy number ˜2000. We grew the #1.13 cells in the presence of various concentration of compounds in subconfluent conditions (cells were split every three days) for 7 days. HPV18 replication signal was detected by Southern blot analyses and quantified with phosphoimager. About 50% of the signal was lost in case of compound 82269 compared to the DMSO control (FIG. 3, panel A, compare lanes 4-6 with lane 15 and panel B).

HPV18E1E2 mutant genome = HPV18E1E2 mutant genome replicated by HPV11 E1 and E2 in U2OS cells; type: cell-based, HPV18; settings: U2OS co-transfected with HPV18E1E2 mutant and HPV11 wt minicircle, 5 days
Excerpt: Besides oncoproteins E6 and E7, HPVs differ from replication proteins E1 and E2 as well. To determine if the compounds identified here inhibit the replication of HR but not LR or cutaneous HPVs through E1 or E2, HPV18E1E2 mutant genome (deficient in replication due to mutations in the ORFs of E1 and E2) was replicated by E1 and E2 proteins originating from HPV11. HPV18E1E2 mutant genome alone was used as control. U2OS cells were co-transfected with HPV18E1E2 mutant and HPV11 wt mini circle genome and the cells were grown in the presence of compound 305831 for 5 days, media was changed on the 3rd day. DMSO was added as vehicle control. Genomic DNA was extracted, HPV DNA was digested with AgeI, SdaI and DpnI. HPV replication was detected by Southern Blot analyses. Results on FIG. 7 show, that HPV18E1E2 mutant genome is indeed replication-deficient when transfected alone (lane 7). […] The activity of LR-HPV E1 and E2 proteins or their interactome seem to be different compared to HR-HPV replication proteins.

HPV18 [2] = experiment: HPV18 replication in U2OS-EBNA1 cells, compounds alone or with CPT; type: cell-based; settings: U2OS-EBNA1, with 2 nM CPT, 5 days
Procedure: FIG. 5 Synergistic effect between Camptothecin (CPT) and the identified five compounds. U2OS-EBNA1 cells were transfected with HPV18 wt and oriP plasmids and grown in the presence of indicated concentrations of the compounds alone or together with 2 nM CPT for 5 days. Genomic DNA was extracted, linearized and digested with DpnI. Both HPV18 and oriP replication signals were detected with Southern Blot and quantified by phosphoimager. […] Error-bars represent standard deviations from at least three independent experiments.
(§2) Replication assay. The U2OS or U2OS-EBNA1 cells were transfected with 2 ug of HPV18 minicircle genome and lug of oriP plasmid (only in case of U2OS-EBNA1 cells). All the compounds were added to the media immediately after the transfection and media was changed on the third day. Replication signals were detected with Southern Blot method. Briefly, genomic DNA was extracted 3 and 4 days after the transfection with sh_RNAs or with the use of ABT-888 and 5 days after for analyses of the effects of HPV inhibitors w/wo CPT. DNA was digested with BglI and DpnI for analyses of HPV18 replication and with BstXI, ScaI and DpnI for analyses of HPV18 and oriP replication simultaneously. 3 ug of DNA was resolved in agarose gel, transferred to a nylon membrane (Membrane Solutions LLC) and hybridized with specific radioactively labeled probes. Signals were detected and quantified with Typhoon Trio+ phosphoimager (GE Healthcare) and exposed on an X-ray film (AGFA).
Synergistic effect of Campthotecin (CPT) and HPV18 replication inhibitors. CPT is a Topoisomerase I inhibitor that stabilizes entrapped Top1cc complexes to DNA. Since Tdp1 is responsible for cleaving entrapped Top1cc complexes from DNA, synergistic effect between CPT and Tdp1 inhibitors occurs. In the experiments shown in FIG. 5 we used U2OS cells constitutively expressing Epstein Barr virus (EBV) EBNA1 protein—U2OS-EBNA1. These cells allow to monitor HPV and EBNA1 supported oriP plasmid replication simultaneously. […] U2OS-EBNA1 cells were cotransfected with HPV18 genome and oriP plasmid and the cells were grown in the presence of various concentrations of the identified HPV inhibitors alone or together with 2 nM of CPT for 5 days, DMSO was used as vehicle control.

HPV18 [3] = experiment: Vegetative amplification of HPV18 in U2OS #1.13 cells, confluent; type: cell-based; settings: U2OS #1.13, confluent, compounds added on 5th day for additional 7 days
Procedure: as §1
If #1.13 is grown in confluent conditions for at least 5 days, vegetative amplification of HPV genome is turned on. We seeded equal amounts of cells onto plates and grew them for 5 days without splitting. On the 5th day various concentrations of compound were added and the cells were grown for additional 7 days (media was changed every two days throughout the experiment). HPV replication signal was detected by Southern Blot analyses and quantified with phosphoimager.

HPV18 [4] = experiment: HPV18 initial amplification replication assay in U2OS cells (Southern Blot); type: cell-based; settings: for HPV18 replication after shRNA downregulation: 3 and 4 days after transfection, vs empty shRNA plasmid
Excerpt: FIG. 2 Effect of the identified five compounds on HPV18 initial amplification. A: U2OS cells were transfected with HPV18 wt minicircle and grown in the presence of the compounds with indicated concentrations for 5 days. Genomic DNA was extracted, linearized, and digested with DpnI. HPV genome replication signals were detected using Southern Blot analyses and quantified with phosphoimager and expressed relative to vehicle control (DMSO). Approximate IC50 values are shown for each compound. Error-bars represent standard deviation from at least three independent experiment. B: U2OS cells were transfected with the expression vectors of HPV18 E1 and E2 proteins together with HPV18 URR (origin) minicircle plasmid. The cells were grown in the presence of the compounds with indicated concentrations for 24 or 48 hours. Genomic DNA was extracted, linearized and digested with DpnI. HPV URR replication signals were detected by Southern Blot analyses. DMSO serves as vehicle control and M 18URR serves as size marker.
as §2
for compounds inhibiting initial amplification of HPV18 genome in U2OS cells. HT-screening was conducted with all the compounds in this library in 5 uM and 1 uM concentrations and it gave us 80 hits (approximately 5% of analyzed compounds). After validation of the hits on HPV18 wt genome, we found five compounds inhibiting initial amplification of HPV18 in U2OS cells (FIG. 1). To further characterize the compounds, we performed replication assay described in Example 1.

Tdp = Tdp (Homo sapiens, UniProt Q9NUW8); settings: known from the literature; cited from earlier work
Chain of Tdp (Q9NUW8 whole entry): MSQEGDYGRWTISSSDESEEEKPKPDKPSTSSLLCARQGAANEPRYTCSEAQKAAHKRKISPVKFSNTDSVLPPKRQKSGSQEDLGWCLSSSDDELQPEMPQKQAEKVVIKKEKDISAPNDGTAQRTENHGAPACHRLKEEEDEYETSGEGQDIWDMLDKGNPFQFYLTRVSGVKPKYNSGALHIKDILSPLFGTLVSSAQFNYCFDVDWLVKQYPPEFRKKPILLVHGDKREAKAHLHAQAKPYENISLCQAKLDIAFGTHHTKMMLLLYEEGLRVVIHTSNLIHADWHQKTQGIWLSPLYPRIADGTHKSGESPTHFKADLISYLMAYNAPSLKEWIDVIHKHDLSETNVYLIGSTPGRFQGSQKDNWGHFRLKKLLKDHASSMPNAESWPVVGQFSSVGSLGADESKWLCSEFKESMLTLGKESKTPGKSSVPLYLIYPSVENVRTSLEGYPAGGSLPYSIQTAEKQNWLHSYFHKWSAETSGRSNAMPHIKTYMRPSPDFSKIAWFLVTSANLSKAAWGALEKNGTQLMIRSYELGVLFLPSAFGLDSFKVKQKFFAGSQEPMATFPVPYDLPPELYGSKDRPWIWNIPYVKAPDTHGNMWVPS

PARP1 = experiment: Western Blot of PARP1 after shRNA in U2OS cells; type: cell-based
Excerpt: (§3) FIG. 4 Involvement of Tdp1 and PARP1 in HPV18 initial amplification. A: U2OS cells were transfected with HPV18 wt minicircle and sh_Tdp1 plasmid. Genomic DNA was extracted 3 and 4 days after the transfection, linearized and digested with DpnI. HPV replication signal was detected with Southern Blot analyses and B: quantified with phosphoimager. C: Western Blot analyses showing downregulation of Tdp1 protein by shRNA. D: U2OS cells were transfected with HPV18 wt minicircle and sh_PARP1 plasmid. HPV replication signal was detected with Southern Blot analyses and E: quantified with phosphoimager. F: Western Blot analyses showing downregulation of PARP1 protein by shRNA. G: U2OS cells were transfected with HPV18 wt minicircle and grown for 3 and 4 days in the presence of different concentrations of PARP1 inhibitor ABT-888. HPV replication signal was detected with Southern Blot analyses and H: quantified with phosphoimager. Error-bars represent standard deviations from at least three independent experiments.
(§4) Western Blot. The cells were lysed with Laemmli buffer (4% SDS, 20% glycerol, 120 mM Tris-Cl (pH 6.8), and 200 mM DTT) and boiled for 10 minutes at 100° C. […] Tdp1 and PARP1 were detected with their specific antibodies from Santa Cruz Biotechnology: sc-365674 and sc-56197 respectively. Tubulin (used as loading control) was detected using Sigma Aldrich antibody T9026. […]

Tdp1 = experiment: Western Blot of Tdp1 after shRNA in U2OS cells; type: cell-based
Excerpt: as §3, §4

Compound | effect on stable maintenance of HPV18 (HPV18 [1]) | HPV18 replication signal lost (HPV18 [1]; compared to DMSO control) | HPV18 replication carried out by E1 and E2 proteins originating from HPV11 (HPV18E1E2 mutant genome) | synergistic effect together with CPT on HPV18 replication (HPV18 [2]) | effect on vegetative amplification of HPV18 (HPV18 [3]) | IC50 (HPV18 [4]; 120 h, read-out: IC50 of HPV18 initial amplification) [µM] | inhibition of HPV18 initial amplification (HPV18 [4]; HPV18 wt minicircle, 5 days, Southern Blot, relative to DMSO) | Tdp inhibition (Tdp) | HPV18 replication after shRNA downregulation (HPV18 [4]) | PARP1 expression (PARP1) | Tdp1 expression (Tdp1)
[H]/N=C(\N)c1ccc(-c2ccc(-c3ccc(C(=N)N)cc3)o2)cc1 [NSC 305831] | clearly inhibit | about 70% | no inhibition of HPV18 replication | clear concentration dependent synergistic effect; also recorded: clear synergistic inhibition | almost completely abolished amplification; also recorded: clearly inhibit | 2.5 to 60 | concentration-dependent inhibition | known to inhibit Tdp | – | – | –
shRNA_PARP1: PARP1 shRNA plasmid, SEQ ID NO: 2, expression under RNA polymerase III promoter U6 (DNA GGACTCGCTCCGGATGGCCTTCAAGAGAGGCCATCCGGAGCGAGTCC) [reference compound] | – | – | – | – | – | – | – | – | inhibits HPV18 replication significantly | decreased | –
shRNA_Tdp1: Tdp1 shRNA plasmid, SEQ ID NO: 1, expression under RNA polymerase III promoter U6 (DNA GCACGATCTCTCTGAAACAAACTCGAGTTTGTTTCAGAGAGATCGT) [reference compound] | – | – | – | – | – | – | – | – | clear decrease in HPV18 replication | – | decreased significantly

— US11000529B2, “Human papilloma virus replication inhibitors” (Icosagen Cell Factory OÜ, priority 2015, dated 2021)
